# Assay results: patent publication US10138235B2, “Pyrazolopyridine derivatives, preparation process therefor and therapeutic use thereof” (SANOFI, priority 2011, dated 2018)
# Assays:
# [1] = system: HUVEC cells stimulated with FGF-2; assay: In vitro angiogenesis of HUVEC cells induced with FGF-2 (length of pseudotubules); type: cell-based, human; conditions: concentration at which active on FGF-2-induced angiogenesis of HUVEC cells, evaluated from 0.03 nM to 300 nM; for minimal effective concentration: Homo sapiens, 24 h
# Protocol: To do this, matrices composed of matrigel (growth factor reduced matrigel, Becton Dickinson 356230) and of collagen (rat tail collagen type I, Becton Dickinson 354236) are deposited in an amount of 160 μl into each chamberslide well (Biocoat Cellware collagen, Type I, 8-well culturesides: Becton dickinson 354630), or 60 μl per well of 96-plate wells (Biocoat collagenl cellware, Becton Dickinson 354407). The matrix is prepared by mixing ⅓ of matrigel, 1 mg/ml final of collagen, 0.1N NaOH (0.026× the volume of collagen in μl), PBS 1×, and the volume is then adjusted with water. The gels are kept for 1 hour at 37° C. to allow their polymerization. Next, the human venous endothelial cells (HUVEC ref.: C-12200—Promocell) were seeded at 15×10^3 or 6×10^3 cells/well in 400 or 120 μl (for the 8-well or 96-well plates, respectively) of EBM medium (Clonetics C3121)+2% FBS+hEGF 10 μg/ml. They are stimulated with 1 or 3 ng/ml of FGF-2 (R&D system, 133-FB-025; Invitrogen, PHG0026) for 24 hours at 37° C. in the presence of 5% CO2. After 24 hours, the length of the network of microtubules formed is measured by means of the computer-assisted image analysis system (Imagenia Biocom, Courtaboeuf, France) and the total length of the pseudotubules in each well is determined. The mean total length of the microcapillary network is calculated in μm for each condition corresponding to the mean on 6 replicates
# Stimulation with FGF-2 allows induction of the formation of new tubules. An FGF-R antagonist is considered as being active in this test if it is capable of partially inhibiting this angiogenesis at a dose of less than or equal to 300 nM.
# In this experiment, the molecules are evaluated from 0.03 nM to 300 nM depending on the molecule with regard to induction of the angiogenesis of human HUVEC cells with FGF-2. Compounds 38 (Example 2), 46 (Example 1), 53 (Example 3), 56 (Example 4), 57 (Example 6), 61 (Example 5), 75 (Example 12), 83 (Example 13), 88 (Example 8), 91 (Example 15), 93 (Example 14), 106 (Example 11), 108 (Example 7) and 114 (Example 9) are active since they have inhibitory activity on the formation of pseudotubules of greater than or equal to 20% at a dose of less than or equal to 300 nM (FIG. 1). In the following table, A=active for a concentration<1 nM, B=active at a concentration of 1 nM, C=active at a concentration of 3 nM, D=active at a concentration of 10 nM, E=active at a concentration of 30 nM, and F=active at a concentration of 300 nM.
# [2] = system: inflammatory angiogenesis in mice; assay: Model of inflammatory angiogenesis in mice (air pocket granuloma); type: in vivo; conditions: 30 mg/kg, after one week of treatment
# Protocol: The model described by Colville-N H et al. in 1995 makes it possible to study pharmacological agents that are capable of modulating the appearance of angiogenesis in an inflammatory context. The model is developed on female OF1 mice (Charles River laboratories) weighing about 25 g, and per group of 12. The animals are anaesthetized intraperitoneally with pentobarbital sodium (60 mg/kg; Sanofi Nutrition Santé Animale). An air pocket is created on the mouse's back by injecting 3 ml of air subcutaneously. After waking up, the animals receive a treatment in general by gavage and receive an injection of 0.5 ml of Freud's adjuvant (Sigma) with 0.1% croton oil (Sigma) into the pocket. Seven days later, the mice are again anaesthetized and placed on a hotplate at 40° C. 1 ml of carmine red (Aldrich Chemicals, 5% in 10% of gelatin) is injected into the caudal vein. The animals are then placed at 4° C. for 2-3 hours. The skins are then removed and dried for 24 hours in an oven at 56° C. […] The filtrates are read in a spectrophotometer at 492 nm against a calibration range of carmine red. […] The results are expressed as mean values (±sem). […]
# The FGF-R antagonists are evaluated between 1 and 50 mg/kg using methylcellulose/Tween (0.6% v/v) as vehicle or any other vehicle that enables dissolution of the active principle. […]
SMILES,melting point [°C],minimal effective concentration [1] [µM],weight of granuloma (dry weight of the skin) [2],Activity [1]
"NC(=O)c1cc(-c2ccc(F)c(C(=O)O)c2)nc2[nH]nc(-c3ccccc3)c12 [Compound 46, 5-(4-Carbamoyl-3-phenyl-1H-pyrazolo[3,4-b]pyridin-6-yl)-2-fluorobenzoic acid]",–,< 0.001,significantly reduces,–
"O=C(O)c1cc(-c2cc(C(F)(F)F)c3c(-c4ccccc4)n[nH]c3n2)ccc1F [Compound 56, 2-Fluoro-5-[3-phenyl-4-(trifluoromethyl)-1H-pyrazolo[3,4-b]pyridin-6-yl]benzoic acid]",–,< 0.001,–,–
Cn1nc(-c2cccnc2)c2c(C(F)(F)F)cc(-c3cccc(CN4CCOCC4)c3)nc21 [Compound 93],–,–,–,F (F=active at a concentration of 300 nM)
"O=C(O)c1cc(-c2cc(C(F)F)c3c(-c4ccccc4)n[nH]c3n2)ccc1F [Compound 53, 5-[4-(Difluoromethyl)-3-phenyl-1H-pyrazolo[3,4-b]pyridin-6-yl)-2-fluorobenzoic acid]",–,< 0.001,–,–
CN(C)CCn1ncc2c(C(F)F)cc(-c3ccc(N)c(C#N)c3)nc21 [Compound 83],–,–,–,D (D=active at a concentration of 10 nM)
"COc1cc(-c2cc(C(=O)O)c3cn[nH]c3n2)ccc1N [Compound 38, 6-(4-Amino-3-methoxyphenyl)-1H-pyrazolo[3,4-b]pyridine-4-carboxylic acid]",–,0.003,–,–
"Cn1cc2c(C(F)F)cc(-c3ccc(N)c(C#N)c3)nc2n1 [Compound 106, 2-Amino-5-[4-(difluoromethyl)-2-methyl-2H-pyrazolo[3,4-b]pyridin-6-yl]benzonitrile]",–,< 0.001,–,–

# Further lines, with some results ahead:
melting point [°C],SMILES,minimal effective concentration [1] [µM],weight of granuloma (dry weight of the skin) [2],Activity [1]
269,"Cn1nc(-c2ccccc2)c2c(C(F)(F)F)cc(-c3ccc(N)c(C#N)c3)nc21 [Compound 57, 2-Amino-5-[1-methyl-3-phenyl-4-(trifluoromethyl)-1H-pyrazolo[3,4-b]pyridin-6-yl]benzonitrile]",0.003,–,–
296,"N#Cc1cc(-c2cc(C(F)F)c3c(-c4cccnc4)n[nH]c3n2)ccc1N [Compound 91, 2-Amino-5-[4-(difluoromethyl)-3-(pyridin-3-yl)-1H-pyrazolo[3,4-b]pyridin-6-yl]benzonitrile]",0.3,–,–
263,"N#Cc1cc(-c2cc(C(F)F)c3cn[nH]c3n2)ccc1N [Compound 75, 2-Amino-5-[4-(difluoromethyl)-1H-pyrazolo[3,4-b]pyridin-6-yl]benzonitrile]",0.01,–,–
227,"CN(C)c1ccc(-c2cc(C(F)(F)F)c3c(-c4ccccc4)n[nH]c3n2)cc1 [Compound 61, N,N-Dimethyl-4-[3-phenyl-4-(trifluoromethyl)-1H-pyrazolo[3,4-b]pyridin-6-yl]aniline]",0.001,–,–
276,"Cn1ncc2c(C(F)(F)F)cc(-c3ccc(N)c(C#N)c3)nc21 [Compound 88, 2-Amino-5-[1-methyl-4-(trifluoromethyl)-1H-pyrazolo[3,4-b]pyridin-6-yl]benzonitrile]",0.003,–,–
251,"Cn1ncc2c(C(F)F)cc(-c3ccc(N)c(C#N)c3)nc21 [Compound 72, 2-Amino-5-[4-(difluoromethyl)-1-methyl-1H-pyrazolo[3,4-b]pyridin-6-yl]benzonitrile]",0.01,–,–
249,"Cn1cc2c(C(F)(F)F)cc(-c3ccc(N)c(C#N)c3)nc2n1 [Compound 114, 2-Amino-5-[2-methyl-4-(trifluoromethyl)-2H-pyrazolo[3,4-b]pyridin-6-yl]benzonitrile]",0.003,–,–
295,"Cn1nc2nc(-c3ccc(N)c(C#N)c3)cc(C(F)(F)F)c2c1-c1ccccc1 [Compound 108, 2-Amino-5-[2-methyl-3-phenyl-4-(trifluoromethyl)-2H-pyrazolo[3,4-b]pyridin-6-yl]benzonitrile]",0.003,–,–
